# Assay: GHS categories as the set defines them, by LD50: 1 up to 5, 2 up to 50, 3 up to 300, 4 up to 2000, 5 above 2000 mg/kg
# Settings: rat; in vivo; po
# Excerpt: […]The data set underlying the modeling effort for this project was initially compiled by NICEATM and U.S. EPA’s CCTE. Briefly, LD50 data were collected from rat acute oral systemic toxicity tests, including limit tests, ranges/confidence intervals, and discrete LD50 values. The full data set included 21,200 LD50 entries for 15,688 substances. […] Data were reviewed to ensure that LD50 values with obvious errors in the extracted data such as unit conversion errors (e.g., comma and decimal separator misplacements) were either fixed or removed. After this review, 16,209 LD50 values remained. Many of the chemicals represented had multiple LD50 entries, requiring that a single representative value per Chemical Abstracts Service Registry Number (CASRN) identifier be defined to facilitate modeling efforts. Based on ATWG feedback and to define the representative LD50 as a protective value while accounting for the distribution across multiple LD50s, the median of the lowest quartile was computed using only discrete LD50 values (omitting limit test data and range and confidence interval data). A detailed summary of the data compilation is available online on the NICEATM webpage dedicated to the collaborative modeling project (NTP 2020).
# […][…] For categorical designations, limit test and range/confidence interval LD50 data were integrated wherever possible. As such, the number of chemicals with end point values/calls varies across the modeling end points (Table 3) based on whether chemicals had representative LD50 values and/or other data. If a chemical had both, the representative value was used to determine categorical calls rather than limit test data. Some data were useable only for certain end points and categories depending on the thresholds. For example, ranges that spanned multiple hazard categories were considered only for the binary (very toxic/nontoxic) end points and omitted from rendering a determination for hazard category assignment.
# […]The final data set comprising 11,992 chemicals was split into training and evaluation sets […], respectively. This process was performed semirandomly by ordering chemicals based on the five end points (categorical and continuous LD50 values) and partitioning every fourth record into the evaluation set accordingly. This approach was taken to ensure an equivalent distribution of the LD50 values and the different hazard categories between the training and the evaluation sets without supervised sampling of the chemicals based on structures (Figure 1A). The sources of the chemical structures were also kept equivalent between the two sets, with chemical structures obtained from DSSTox, being the highest quality, representing over 75% of each set (Figure 1B).
row,Structure (SMILES),GHS category
1,Nc1ccc(N=Nc2ccc(N=Nc3c(S(=O)(=O)O)cc4cc(S(=O)(=O)O)c(N=Nc5ccc(N=Nc6ccc(N)cc6N)cc5)c(O)c4c3N)cc2)c(N)c1,5
2,CCOC(=O)C1(OC(=O)Cc2ccc(Cl)cc2Cl)CCCCC1,5
3,CN/C(=N\[N+](=O)[O-])NCc1cnc(Cl)s1,5
4,O=C(O)c1ccccc1Nc1ccc(Cl)c2ccccc12,5
5,CCOC(=O)C1(C)OC(=O)N(c2cc(Cl)cc(Cl)c2)C1=O (stereo unspecified),5
6,CCCCCCCC/C=C\CCCCCCCC(=O)N(CCCC)CCCC,5
7,O=C1Nc2ccccc2C1=O,5
8,CCCc1c(Cc2ccc(-c3ccccc3-c3nn[nH]n3)cc2)c(=O)nc2nc(SC)[nH]n12,4
9,CCOP(Oc1c(C)cc(C(C)(C)C)cc1C(C)(C)C)Oc1c(C)cc(C(C)(C)C)cc1C(C)(C)C,5
10,Cc1cccc2ncc(C(=O)NC34CC5CC(CC(C5)C3)C4)c(=O)n12,3
11,CNC(=O)Nc1ccc(Cl)c(Cl)c1,4
12,Cc1cccc2c1NC(=O)C2(c1ccc(OS(=O)(=O)O)cc1)c1ccc(OS(=O)(=O)O)cc1,5
13,O=C(O)CNC(c1ccccc1)c1ccc(Cl)c(Cl)c1 (stereo unspecified),4
14,CCC(=O)OCC(=O)OC(C)C1CCCC(C)(C)C1 (stereo unspecified),5
15,C=C(C)C(=O)NC(C)C,5
16,Cc1cnc(C2=NC(=O)C(C)(C(C)C)N2)c(C(=O)O)c1 (stereo unspecified),5
17,CCc1c(Cc2ccc(-c3ccccc3-c3nn[nH]n3)cc2)c(=O)nc2nc[nH]n12,4
18,C=Cc1ccc(O)c(C=C)c1,5
19,CC(C)(C)c1cc2c(c(C(C)(C)C)c1)OP(=O)(O)Oc1c(cc(C(C)(C)C)cc1C(C)(C)C)C2,5
20,CN(C)C1C(=O)C(=C(O)NCN2CCCC2C(=O)O)C(=O)C2(O)C(=O)C3=C(O)c4c(O)cccc4C(C)(O)C3CC12 (stereo unspecified),5
21,CCc1oc2ccccc2c1C(=O)c1ccc(O)cc1,5
22,CC(=O)S[C@H]1CC(=O)C=C2C[C@@H](SC(C)=O)[C@@H]3[C@H](CC[C@@]4(C)[C@H]3CC[C@]4(C)O)[C@]21C,5
23,CC1(C)COC(Cn2cncn2)(c2cc3cc(Cl)cc(Cl)c3o2)OC1,4

row,Structure (SMILES),GHS category
1,CCCCCCCCCCCC,5
2,Fc1c(F)c(F)c(Cl)c(F)c1F,5
3,O=C(CCS)OCC(COC(=O)CCS)(COC(=O)CCS)COC(=O)CCS,4
4,COc1ccccc1NC(=O)C(N=Nc1ccc(Cl)cc1[N+](=O)[O-])C(C)=O (stereo unspecified),5
5,C=COC(=O)CCCCC(C)(C)C,5
6,COC(=O)c1ccccc1S(=O)(=O)NC(=O)N(C)c1nc(C)nc(OC)n1,5
7,CCOC(=O)C(SP(=S)(OC)OC)C(SP(=S)(OC)OC)C(=O)OCC (stereo unspecified),4
8,Cc1ccc(C2CC(=O)C(C(=O)CCc3ccc4c(c3)OCO4)C(=O)C2)cc1 (stereo unspecified),5
9,Nc1ccc(NCCO)c([N+](=O)[O-])c1,4
10,C[Si]1(C)O[Si](C)(c2ccccc2)O[Si](C)(C)O[Si](C)(c2ccccc2)O1 (stereo unspecified),5
11,Clc1ccc2oc(C3(Cn4cncn4)OCCCO3)cc2c1,4
12,CCCCCOC1OC(C)C(O)C(O)C1O (stereo unspecified),5
13,CN(CCOP(=O)(O)O)C(=N)N,5
14,CC1CCC(C(C)C)C(OCC(O)CO)C1 (stereo unspecified),5
15,CCCCCCOC(=O)CCC,5
16,CC(C)c1ccc(C(C)(C)C(C)(C)c2ccc(C(C)C)cc2)cc1,5
17,Oc1c(-c2[nH]c3ccccc3c2O)[nH]c2ccccc12,5
18,COc1ccc2c(c1)CCN(c1ccccc1)C2c1ccc(Cl)cc1 (stereo unspecified),4
19,Cc1cc(C(C)(C)C)c(O)c(C)c1CC#N,5
20,Nc1cc(Cl)c(Cl)cc1S(=O)(=O)O,5
21,CC(=O)Nc1ccc(C2=NN(C(C)=O)C(C)Cc3cc4c(cc32)OCO4)cc1 (stereo unspecified),4
22,CCCCCCOC=O,5
23,CC(C)OP(=O)(O)Oc1ccccc1,5
